Where “and” joins values, the source holds several entries; their conditions need not be identical. Identical values can stand only once. Inconclusive results and toxic doses are left out. *1 amine or outer side, *2 acyl side, *3 side chain or, on linkers, in order; H or OH if unused. Where a SMILES comes first, the peptide text is derived from it. Bridges are numbered along the chain shown (N, C = ends). Roman numbers before positions name the chains, in order. [ ]: non-standard residue; d: D form. Actinocin(9to1) = Cc1c2oc3c(C)ccc(C(=O)[*:1])c3nc-2c(C(=O)[*:2])c(N)c1=O; aThr = C[C@H](O)[C@H](N)C(=O)O; NMeV = CN[C@H](C(=O)O)C(C)C; Sar = CNCC(=O)O

The test system of the assay is mice, LPC-1 plasma cell tumor ip, median survival T/C. In words: NCI In Vivo Anticancer Drug Screen. Data for tumor model Lieberman Plasma Cell No. 1 (LPC-1) (intraperitoneal) in unknown mice. Particulars: endpoint: median survival time, higher = longer survival. How it is done:
The antitumor activity of compounds was measured in mice bearing transplantable tumors. Survival or tumor size were measured and the results are expressed as the measurement made in the treated group (T) divided by the measurement made in the vehicle treated control group (C). The tumor model used in this assay is Lieberman Plasma Cell No. 1 (LPC-1) (intraperitoneal) in unknown mice

`CS(=O)(=O)OCCN(CCOS(C)(=O)=O)c1ccc(/C=N/Nc2ncnc3nc[nH]c23)cc1`: the T/C was 111 % of control (dose: 5.0 mg/kg/injection, schedule: Q03HX056 (sc), vehicle: other); 186 % of control (dose: 8.0 mg/kg/injection, schedule: Q01DX028 (sc), vehicle: carboxymethylcellulose (CMC)); 100 % of control (dose: 10.0 mg/kg/injection, schedule: Q03HX008 (sc), vehicle: other); 116 % of control (dose: 10.0 mg/kg/injection, schedule: Q03HX056 (sc), vehicle: other); 102 % of control (dose: 20.0 mg/kg/injection, schedule: Q03HX008 (sc), vehicle: other); 150 % of control (dose: 20.0 mg/kg/injection, schedule: Q03HX056 (sc), vehicle: other). The T/C is 171 % of control (dose: 36.0 mg/kg/injection, schedule: Q01DX028 (sc), vehicle: carboxymethylcellulose (CMC)); 116 % of control (dose: 40.0 mg/kg/injection, schedule: Q03HX008 (sc), vehicle: other); 210 % of control (dose: 55.0 mg/kg/injection, schedule: Q01DX028 (sc), vehicle: carboxymethylcellulose (CMC)); 158 % of control (dose: 79.0 mg/kg/injection, schedule: Q01DX028 (sc), vehicle: other); 94 % of control (dose: 80.0 mg/kg/injection, schedule: Q01DX001 (sc), vehicle: other); 177 % of control (dose: 80.0 mg/kg/injection, schedule: Q01DX028 (ip), vehicle: other). The T/C reads like this: (dose: 80.0 mg/kg/injection, schedule: Q01DX028 (sc), vehicle: carboxymethylcellulose (CMC)) 218 % of control and 102 % of control; (dose: 80.0 mg/kg/injection, schedule: Q03DX004 (sc), vehicle: other) 111 % of control; (dose: 80.0 mg/kg/injection, schedule: Q03HX008 (sc), vehicle: other) 108 % of control; (dose: 119.0 mg/kg/injection, schedule: Q01DX028 (sc), vehicle: other) 210 % of control; (dose: 120.0 mg/kg/injection, schedule: Q01DX028 (ip), vehicle: other) 166 % of control; (dose: 120.0 mg/kg/injection, schedule: Q01DX028 (oral), vehicle: other) 122 % of control. Moreover, the T/C reads like this: (dose: 120.0 mg/kg/injection, schedule: Q01DX028 (sc), vehicle: carboxymethylcellulose (CMC)) 175 % of control and 252 % of control; (dose: 120.0 mg/kg/injection, schedule: Q01DX028 (sc), vehicle: other) 189 % of control; (dose: 120.0 mg/kg/injection, schedule: Q03DX004 (sc), vehicle: other) 116 % of control; (dose: 160.0 mg/kg/injection, schedule: Q01DX001 (sc), vehicle: other) 97 % of control; (dose: 179.0 mg/kg/injection, schedule: Q01DX028 (sc), vehicle: other) 187 % of control; (dose: 180.0 mg/kg/injection, schedule: Q01DX028 (ip), vehicle: other) 111 % of control. The T/C runs as follows: (dose: 180.0 mg/kg/injection, schedule: Q01DX028 (sc), vehicle: carboxymethylcellulose (CMC)) 164 % of control and 238 % of control; (dose: 180.0 mg/kg/injection, schedule: Q01DX028 (sc), vehicle: other) 166 % of control; (dose: 180.0 mg/kg/injection, schedule: Q03DX004 (sc), vehicle: other) 116 % of control; (dose: 269.0 mg/kg/injection, schedule: Q01DX028 (sc), vehicle: other) 166 % of control; (dose: 270.0 mg/kg/injection, schedule: Q01DX028 (ip), vehicle: other) 122 % of control; (dose: 270.0 mg/kg/injection, schedule: Q01DX028 (oral), vehicle: other) 119 % of control. Also, the T/C is 202 % of control (dose: 270.0 mg/kg/injection, schedule: Q01DX028 (sc), vehicle: carboxymethylcellulose (CMC)); 116 % of control (dose: 270.0 mg/kg/injection, schedule: Q03DX004 (sc), vehicle: other); 105 % of control (dose: 320.0 mg/kg/injection, schedule: Q01DX001 (sc), vehicle: other); 105 % of control (dose: 640.0 mg/kg/injection, schedule: Q01DX001 (sc), vehicle: other).
For `CC1(C)CC2(CC(C)(C)Oc3cc(O)ccc32)c2ccc(O)cc2O1`, the T/C was 100 % of control (dose: 50.0 mg/kg/injection, schedule: Q01DX008 (sc), vehicle: saline); 97 % of control (dose: 100.0 mg/kg/injection, schedule: Q01DX008 (sc), vehicle: saline); 97 % of control (dose: 200.0 mg/kg/injection, schedule: Q01DX008 (sc), vehicle: saline); 92 % of control (dose: 400.0 mg/kg/injection, schedule: Q01DX008 (sc), vehicle: saline).
On to `COc1cc2oc(=O)ccc2cc1CC=C(C)C`, for which the T/C (dose: 25.0 mg/kg/injection, schedule: Q01DX028 (sc), vehicle: saline) was 100 % of control.
In the case of `Nc1nc(=S)c2ncn(C3OC(CO)C(O)C3O)c2[nH]1` (stereo not drawn), the T/C by setting is: (dose: 3.0 mg/kg/injection, schedule: Q01DX028 (sc), vehicle: water) 121 % of control; (dose: 5.0 mg/kg/injection, schedule: Q01DX028 (sc), vehicle: water) 110 % of control; (dose: 8.4 mg/kg/injection, schedule: Q01DX028 (sc), vehicle: water) 110 % of control; (dose: 14.0 mg/kg/injection, schedule: Q01DX028 (sc), vehicle: water) 100 % of control; (dose: 23.0 mg/kg/injection, schedule: Q01DX028 (sc), vehicle: water) 100 % of control.
Regarding `CN[C@H]1CCc2cc(OC)c(OC)c(OC)c2-c2ccc(OC)c(=O)cc21`, the T/C by setting is: (dose: 0.62 mg/kg/injection, schedule: Q01DX015 (sc), vehicle: saline) 102 % of control; (dose: 1.25 mg/kg/injection, schedule: Q01DX015 (sc), vehicle: saline) 102 % of control; (dose: 1.25 mg/kg/injection, schedule: Q01DX028 (sc), vehicle: saline) 107 % of control; (dose: 2.5 mg/kg/injection, schedule: Q01DX028 (sc), vehicle: saline) 107 % of control.
Turning to `COc1cc2oc(=O)ccc2cc1C(=O)CC(C)C`, the T/C reads like this: (dose: 125.0 mg/kg/injection, schedule: Q01DX028 (sc), vehicle: carboxymethylcellulose (CMC)) 102 % of control; (dose: 250.0 mg/kg/injection, schedule: Q01DX028 (sc), vehicle: carboxymethylcellulose (CMC)) 100 % of control; (dose: 500.0 mg/kg/injection, schedule: Q01DX028 (sc), vehicle: carboxymethylcellulose (CMC)) 100 % of control.
In the case of `CCOc1ccccc1C(=O)Nc1ccc(Br)cc1`, the T/C is 97 % of control (dose: 180.0 mg/kg/injection, schedule: Q01DX Z (sc), vehicle: carboxymethylcellulose (CMC)); 105 % of control (dose: 266.0 mg/kg/injection, schedule: Q01DX Z (sc), vehicle: carboxymethylcellulose (CMC)); 100 % of control (dose: 400.0 mg/kg/injection, schedule: Q01DX Z (sc), vehicle: carboxymethylcellulose (CMC)); 94 % of control (dose: 600.0 mg/kg/injection, schedule: Q01DX Z (sc), vehicle: carboxymethylcellulose (CMC)).
On to `COc1cc2cccnc2c2[nH]ccc(=O)c12`, for which the T/C by setting is: (dose: 50.0 mg/kg/injection, schedule: Q01DX009 (sc), vehicle: saline) 100 % of control; (dose: 100.0 mg/kg/injection, schedule: Q01DX009 (sc), vehicle: saline) 92 % of control; (dose: 200.0 mg/kg/injection, schedule: Q01DX009 (sc), vehicle: saline) 102 % of control; (dose: 400.0 mg/kg/injection, schedule: Q01DX009 (sc), vehicle: saline) 104 % of control.
Consider `Cc1c2oc3c(C)ccc(C(=O)N[C@@H]4C(=O)N[C@H](C(C)C)C(=O)N5CCC[C@H]5C(=O)N(C)CC(=O)N(C)[C@@H](C(C)C)C(=O)O[C@H]4C)c3nc-2c(C(=O)N[C@@H]2C(=O)N[C@H](C(C)C)C(=O)N3CCC[C@H]3C(=O)N(C)CC(=O)N(C)[C@@H](C(C)C)C(=O)O[C@H]2C)c(N)c1=O` (I: [aThr][dV]P[Sar][NMeV] / II: [aThr][dV]P[Sar][NMeV]; ester I:1-I:C, II:1-II:C; linker I:N-II:N via Actinocin(9to1)), for which the T/C runs as follows: (dose: 0.03 mg/kg/injection, schedule: Q01DX028 (sc), vehicle: saline) 95 % of control; (dose: 0.06 mg/kg/injection, schedule: Q01DX028 (sc), vehicle: saline) 100 % of control; (dose: 0.13 mg/kg/injection, schedule: Q01DX028 (sc), vehicle: saline) 95 % of control; (dose: 0.25 mg/kg/injection, schedule: Q01DX028 (sc), vehicle: saline) 90 % of control.

(Values after PubChem BioAssay AID344 (DTP/NCI, 2004).)
